Numbered stars: 1 amine (or outer) side, 2 acyl side, 3 side chain; on linkers, the order of the positions; unused ones are H or OH. Bridge positions count the residues as written; N and C are the ends. Square brackets hold non-standard residues; d marks the D form. Ends that are not written are not given here. Peptide text beside a SMILES is read from it. * marks the point of attachment. C20 diacid = O=C(O)CCCCCCCCCCCCCCCCCCC(=O)*; γGlu = O=C(O)[C@H](CCC(=O)[*:2])N[*:1]; Hyp = O=C(O)[C@@H]1C[C@@H](O)CN1
T1: hAMY3 receptor (Homo sapiens, UniProt O60896+P30988)
T1 sequence (P30988 25-474): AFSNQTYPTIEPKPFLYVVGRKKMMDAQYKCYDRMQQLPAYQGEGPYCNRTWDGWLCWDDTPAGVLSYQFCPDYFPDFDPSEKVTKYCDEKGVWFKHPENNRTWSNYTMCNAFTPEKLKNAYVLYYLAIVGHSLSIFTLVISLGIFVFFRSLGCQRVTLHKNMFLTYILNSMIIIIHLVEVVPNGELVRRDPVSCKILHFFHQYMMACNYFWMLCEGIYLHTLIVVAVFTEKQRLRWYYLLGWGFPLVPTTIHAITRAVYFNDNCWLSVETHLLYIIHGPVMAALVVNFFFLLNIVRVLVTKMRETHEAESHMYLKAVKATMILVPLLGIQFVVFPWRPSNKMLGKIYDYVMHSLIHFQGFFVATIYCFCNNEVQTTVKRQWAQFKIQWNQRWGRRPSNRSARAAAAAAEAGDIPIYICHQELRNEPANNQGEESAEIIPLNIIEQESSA
T1 sequence (O60896 24-148 partner): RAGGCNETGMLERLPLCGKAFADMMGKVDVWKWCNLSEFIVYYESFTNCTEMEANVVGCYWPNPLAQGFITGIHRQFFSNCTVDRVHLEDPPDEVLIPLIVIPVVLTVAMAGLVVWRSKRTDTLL

T2: hAMY3R (human, UniProt P30988)
T2 sequence 1: T1 sequence (P30988 25-474)
T2 sequence 2: T1 sequence (O60896 24-148 partner)


Experiments:
[1] = target: T1, hAMY3 receptor; assay: cAMP assay for in vitro receptor activation, hAMY3-R; type: cell-based; settings: cAMP assay, hAMY3 receptor; read-out: hAMY3R EC50
Experimental: General Protocols for cAMP Assays for Measuring In Vitro Receptor Activation
Cells stably overexpressing the hAMY3 receptor were obtained from Ogeda (now Astellas Pharma), sub-cloned and a monoclonal cell-line with an appropriate assay-window was expanded, aliquoted and frozen.
An aliquot was thawed and plated in DPBS with 0.05% casein and 0.5 mM IBMX as 2000 cells/well in a 384-well format. The cells were then immediately stimulated for 30 min at room temperature with graded doses of test compound using human amylin (Bachem, cat no. H-7905) as a positive control. cAMP accumulation was measured using a Cisbio assay for Gs coupled receptors (cat. no. 62AM4PEC), where the assay reagents were added as per the manufacturer's instructions and time-resolved fluorescence energy transfer recorded after one hour.

[2] = target: T2, hAMY3R; assay: cell-based or functional assay
[3] = target: hAM1R (human, UniProt Q16602); assay: cell-based or functional assay

EC50 [1]	hAMY3R EC50 (cAMP) [2]	hAM1R EC50 (cAMP) [3]	Molecule
0.008 nM			CC[C@H](C)[C@H](NC(=O)[C@H](CCC(N)=O)NC(=O)[C@H](Cc1c[nH]cn1)NC(=O)[C@H](C)NC(=O)[C@H](CC(C)C)NC(=O)[C@H](CCCNC(=N)N)NC(=O)[C@H](CCC(N)=O)NC(=O)[C@@H](NC(=O)[C@@H](NC(=O)[C@@H]1CSSC[C@H](NC(=O)[C@@H](N)CCCCN)C(=O)N[C@@H](CC(N)=O)C(=O)N[C@@H](Cc2ccccc2)C(=O)N[C@@H](C)C(=O)N[C@@H]([C@@H](C)O)C(=O)N1)[C@@H](C)O)C(C)C)C(=O)N[C@@H](Cc1ccc(O)cc1)C(=O)N[C@@H](CCC(N)=O)C(=O)N[C@@H](Cc1ccccc1)C(=O)N[C@H](C(=O)N[C@@H](CC(=O)O)C(=O)N[C@@H](CCCCN)C(=O)N[C@@H](CC(=O)O)C(=O)N[C@@H](CCCCN)C(=O)N[C@@H](CC(=O)O)C(=O)N[C@@H](CC(N)=O)C(=O)N[C@H](C(=O)N[C@@H](C)C(=O)N1CCC[C@H]1C(=O)N[C@@H](CCCNC(=N)N)C(=O)N[C@H](C(=O)N[C@@H](CCC(=O)O)C(=O)N[C@H](C(=O)NCC(=O)N[C@@H](CO)C(=O)N[C@@H](CC(N)=O)C(=O)NCC(=O)N1C[C@H](O)C[C@H]1C(N)=O)C(C)C)[C@@H](C)O)C(C)C)[C@@H](C)O [compound 17] (H-KCNFATCTVQRLAHQIYQFTDKDKDNVAPRTEVGSNG[Hyp]-NH2; disulfide 2-7; N-terminus assumed)
0.034 nM			CC[C@H](C)[C@H](NC(=O)[C@H](CC(N)=O)NC(=O)[C@H](CO)NC(=O)[C@H](CCCNC(=N)N)NC(=O)[C@@H]1CCCN1C(=O)[C@H](C)NC(=O)[C@@H](NC(=O)[C@H](CC(N)=O)NC(=O)[C@H](CC(=O)O)NC(=O)[C@H](CCCCN)NC(=O)[C@H](CC(=O)O)NC(=O)[C@H](CCCCN)NC(=O)[C@H](CC(=O)O)NC(=O)[C@@H](NC(=O)[C@H](Cc1ccccc1)NC(=O)[C@H](CCC(N)=O)NC(=O)[C@H](Cc1ccc(O)cc1)NC(=O)[C@@H](NC(=O)[C@H](CCC(N)=O)NC(=O)[C@H](Cc1c[nH]cn1)NC(=O)[C@H](C)NC(=O)[C@H](CC(C)C)NC(=O)[C@H](CCCNC(=N)N)NC(=O)[C@H](CCC(N)=O)NC(=O)[C@@H](NC(=O)[C@@H](NC(=O)[C@@H]1CSSC[C@H](NC(=O)CN)C(=O)N[C@@H](CCCNC(=N)N)C(=O)N[C@@H](Cc2ccccc2)C(=O)NCC(=O)N[C@@H]([C@@H](C)O)C(=O)N1)[C@@H](C)O)C(C)C)[C@@H](C)CC)[C@@H](C)O)C(C)C)C(=O)NCC(=O)N1CCC[C@H]1C(=O)N[C@@H](CCC(N)=O)C(=O)NCC(=O)N[C@@H](Cc1ccc(O)cc1)C(N)=O [compound 382] (H-GCRFGTCTVQRLAHQIYQFTDKDKDNVAPRSNIGPQGY-NH2; disulfide 2-7)
0.022 nM			CC[C@H](C)[C@H](NC(=O)[C@H](CCC(N)=O)NC(=O)[C@H](Cc1c[nH]cn1)NC(=O)[C@H](C)NC(=O)[C@H](CC(C)C)NC(=O)[C@H](CCCNC(=N)N)NC(=O)[C@H](CCC(N)=O)NC(=O)[C@@H](NC(=O)[C@@H](NC(=O)[C@@H]1CSSC[C@H](NC(=O)CN)C(=O)N[C@@H](CCCNC(=N)N)C(=O)N[C@@H](Cc2ccccc2)C(=O)NCC(=O)N[C@@H]([C@@H](C)O)C(=O)N1)[C@@H](C)O)C(C)C)C(=O)N[C@@H](Cc1ccc(O)cc1)C(=O)N[C@@H](CCC(N)=O)C(=O)N[C@@H](Cc1ccccc1)C(=O)N[C@H](C(=O)N[C@@H](CC(=O)O)C(=O)N[C@@H](CCCCN)C(=O)N[C@@H](CC(=O)O)C(=O)N[C@@H](CCCCN)C(=O)N[C@@H](CC(=O)O)C(=O)N[C@@H](CC(N)=O)C(=O)N[C@H](C(=O)N[C@@H](C)C(=O)N1CCC[C@H]1C(=O)N[C@@H](CCCNC(=N)N)C(=O)N[C@@H](CO)C(=O)N[C@@H](CCCCN)C(=O)N[C@H](C(=O)NCC(=O)N1CCC[C@H]1C(=O)N[C@@H](CCC(N)=O)C(=O)NCC(=O)N[C@@H](Cc1ccc(O)cc1)C(N)=O)C(C)C)C(C)C)[C@@H](C)O [compound 375] (H-GCRFGTCTVQRLAHQIYQFTDKDKDNVAPRSKVGPQGY-NH2; disulfide 2-7; N-terminus assumed)
0.027 nM			CC[C@H](C)[C@H](NC(=O)[C@H](CCC(N)=O)NC(=O)[C@H](Cc1c[nH]cn1)NC(=O)[C@H](C)NC(=O)[C@H](CC(C)C)NC(=O)[C@H](CCCNC(=N)N)NC(=O)[C@H](CCC(N)=O)NC(=O)[C@@H](NC(=O)[C@@H](NC(=O)[C@@H]1CSSC[C@H](NC(=O)[C@H](CCCCN)NC(=O)CC[C@H](NC(=O)CCCCCCCCCCCCCCCCCCC(=O)O)C(=O)O)C(=O)N[C@@H](CC(N)=O)C(=O)N[C@@H](Cc2ccccc2)C(=O)N[C@@H](C)C(=O)N[C@@H]([C@@H](C)O)C(=O)N1)[C@@H](C)O)C(C)C)C(=O)N[C@@H](Cc1ccc(O)cc1)C(=O)N[C@@H](CCC(N)=O)C(=O)N[C@@H](Cc1ccccc1)C(=O)N[C@H](C(=O)N[C@@H](CC(=O)O)C(=O)N[C@@H](CCCCN)C(=O)N[C@@H](CC(=O)O)C(=O)N[C@@H](CCCCN)C(=O)N[C@@H](CC(=O)O)C(=O)N[C@@H](CC(N)=O)C(=O)N[C@H](C(=O)N[C@@H](C)C(=O)N1CCC[C@H]1C(=O)N[C@@H](CCCNC(=N)N)C(=O)N[C@H](C(=O)N[C@@H](CCCCN)C(=O)N[C@H](C(=O)NCC(=O)N[C@@H](CO)C(=O)N[C@@H](CC(N)=O)C(=O)NCC(=O)N[C@@H](Cc1ccc(O)cc1)C(N)=O)C(C)C)[C@@H](C)O)C(C)C)[C@@H](C)O [compound 378] ({C20 diacid-γGlu}-KCNFATCTVQRLAHQIYQFTDKDKDNVAPRTKVGSNGY-NH2; disulfide 2-7)
0.186 nM			CC(C)C[C@H](NC(=O)[C@H](CCCNC(=N)N)NC(=O)[C@H](CCC(N)=O)NC(=O)[C@@H](NC(=O)[C@@H](NC(=O)[C@@H]1CSSC[C@H](NC(=O)CNC(=O)CC[C@H](NC(=O)CCCCCCCCCCCCCCCCCCC(=O)O)C(=O)O)C(=O)N[C@@H](CCCNC(=N)N)C(=O)N[C@@H](Cc2ccccc2)C(=O)NCC(=O)N[C@@H]([C@@H](C)O)C(=O)N1)[C@@H](C)O)C(C)C)C(=O)N[C@@H](C)C(=O)N[C@@H](Cc1c[nH]cn1)C(=O)N[C@@H](Cc1ccccc1)C(=O)N[C@@H](CC(C)C)C(=O)N[C@@H](Cc1ccc(O)cc1)C(=O)N[C@@H](CCC(N)=O)C(=O)N[C@@H](Cc1ccccc1)C(=O)N[C@H](C(=O)N[C@@H](CC(=O)O)C(=O)N[C@@H](CCCCN)C(=O)N[C@@H](CC(=O)O)C(=O)N[C@@H](CCCCN)C(=O)N[C@@H](CC(=O)O)C(=O)N[C@@H](CC(N)=O)C(=O)N[C@H](C(=O)N[C@@H](C)C(=O)N1CCC[C@H]1C(=O)N[C@@H](CCCNC(=N)N)C(=O)N[C@H](C(=O)N[C@@H](CCCCN)C(=O)N[C@H](C(=O)NCC(=O)N[C@@H](CO)C(=O)N[C@@H](CC(N)=O)C(=O)NCC(=O)N[C@@H](Cc1ccc(O)cc1)C(N)=O)C(C)C)[C@@H](C)O)C(C)C)[C@@H](C)O [compound 223] ({C20 diacid-γGlu}-GCRFGTCTVQRLAHFLYQFTDKDKDNVAPRTKVGSNGY-NH2; disulfide 2-7)
0.027 nM			CC[C@H](C)[C@H](NC(=O)[C@H](C)NC(=O)CNC(=O)[C@H](CC(=O)O)NC(=O)[C@H](CCCCN)NC(=O)[C@H](CC(=O)O)NC(=O)[C@@H](NC(=O)[C@H](Cc1ccccc1)NC(=O)[C@H](CCC(N)=O)NC(=O)[C@H](Cc1ccc(O)cc1)NC(=O)[C@H](CC(C)C)NC(=O)[C@H](Cc1ccccc1)NC(=O)[C@H](Cc1c[nH]cn1)NC(=O)[C@H](C)NC(=O)[C@H](CC(C)C)NC(=O)[C@H](CCCNC(=N)N)NC(=O)[C@H](CCC(N)=O)NC(=O)[C@@H](NC(=O)[C@@H](NC(=O)[C@@H]1CSSC[C@H](NC(=O)CN)C(=O)N[C@@H](CCCNC(=N)N)C(=O)N[C@@H](Cc2ccccc2)C(=O)NCC(=O)N[C@@H]([C@@H](C)O)C(=O)N1)[C@@H](C)O)C(C)C)[C@@H](C)O)C(=O)N[C@@H](C)C(=O)N1CCC[C@H]1C(=O)N[C@@H](CCCNC(=N)N)C(=O)N[C@H](C(=O)N[C@@H](CCCCN)C(=O)N[C@H](C(=O)NCC(=O)N[C@@H](CO)C(=O)N[C@@H](CCC(N)=O)C(=O)NCC(=O)N[C@@H](Cc1ccc(O)cc1)C(N)=O)[C@@H](C)CC)[C@@H](C)O [compound 123] (H-GCRFGTCTVQRLAHFLYQFTDKDGAIAPRTKIGSQGY-NH2; disulfide 2-7; N-terminus assumed)
	0.011 nM	2980 nM	GCRTGTCTVQRLAHQIYQFTDKDKDNVAPRTNVGPQG[Hyp]-NH2 (disulfide 2-7 (inferred); ends not checked) [SEQ ID NO: 49]
